ChEMBL document CHEMBL1201862, “PubChem BioAssay data set” (2004)
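A five-concentration, 48-hour dose response in 96-well plates underlies each endpoint, interpolated linearly between surrounding concentrations. Abbreviation: GI50, concentration required for 50% inhibition of growth.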 Activity calls are given as the source filed them. No stated cut-off is given here; in the data, active = GI50 up to about 1.1 µM and inactive = higher.

Experiments:
Assay in all cases: NCI anticancer screen, dose series, 48 h
HCT-15 = test system: HCT-15
SW-620 = test system: SW-620
TK-10 = test system: TK-10
UO-31 = test system: UO-31
UACC-257 = test system: UACC-257
RPMI-8226 = test system: RPMI-8226
SK-MEL-2 = test system: SK-MEL-2
HOP-92 = test system: HOP-92
SN12C = test system: SN12C
NCI-H460 = test system: NCI-H460
NCI-H23 = test system: NCI-H23
SNB-75 = test system: SNB-75
ACHN = test system: ACHN
A549 = test system: A549
SF-539 = test system: SF-539
EKVX = test system: EKVX
DLD-1 = test system: DLD-1
SF-295 = test system: SF-295
CAKI-1 = test system: CAKI-1
SK-OV-3 = test system: SK-OV-3

SMILES	GI50 (HCT-15) [µM]	GI50 (SW-620)	GI50 (TK-10)	GI50 (UO-31)	GI50 (UACC-257)	GI50 (RPMI-8226)	GI50 (SK-MEL-2)	GI50 (HOP-92)	GI50 (SN12C)	GI50 (NCI-H460)	GI50 (NCI-H23)	GI50 (SNB-75)	GI50 (ACHN)	GI50 (A549)	GI50 (SF-539)	GI50 (EKVX)	GI50 (DLD-1)	GI50 (SF-295)	GI50 (CAKI-1)	GI50 (SK-OV-3)
COc1ccc(C2C(=O)C(Cl)N2Nc2nc(C)cc(O)n2)cc1OC (configuration not stated)	20.2	45.3 µM (inactive)	43.6 µM (inactive)	29.9 µM (inactive)	40.6 µM (inactive)	19.1 µM (inactive)	22.6 µM (inactive)	25.5 µM (inactive)	21.7 µM (inactive)	26.8 µM (inactive)	25.3 µM (inactive)	8.13 µM (inactive)	19.4 µM (inactive)	59.7 µM (inactive)	24 µM (inactive)	56.8 µM (inactive)	–	–	–	–
O=C1C=CC2OC(c3ccccc3)C(O)C2O1 (configuration not stated)	3.42	2.17 µM (inactive)	–	10.2 µM (inactive)	6.31 µM (inactive)	1.39 µM (inactive)	2.75 µM (inactive)	2.15 µM (inactive)	7.03 µM (inactive)	4.7 µM (inactive)	3.07 µM (inactive)	10.4 µM (inactive)	–	5.74 µM (inactive)	3.07 µM (inactive)	4.91 µM (inactive)	3.89 µM (inactive)	7.71 µM (inactive)	2.85 µM (inactive)	13.8 µM (inactive)
CCN(CC)C(=O)C(C)n1cc(C)c(=O)[nH]c1=O (configuration not stated)	> 100	> 100 µM (inactive)	> 100 µM (inactive)	> 100 µM (inactive)	–	> 100 µM (inactive)	> 100 µM (inactive)	–	> 100 µM (inactive)	> 100 µM (inactive)	> 100 µM (inactive)	15.1 µM (inactive)	> 100 µM (inactive)	> 100 µM (inactive)	> 100 µM (inactive)	> 100 µM (inactive)	–	> 100 µM (inactive)	–	–
CC(C)=CCc1c(O)ccc2ccc(=O)oc12 [OSTHENOL]	60.1	> 100 µM (inactive)	–	29.4 µM (inactive)	33 µM (inactive)	26.7 µM (inactive)	45.7 µM (inactive)	38.4 µM (inactive)	> 91.8 µM (inactive)	> 73.5 µM (inactive)	55.5 µM (inactive)	54.5 µM (inactive)	–	5.83 µM (inactive)	24 µM (inactive)	51.6 µM (inactive)	> 100 µM (inactive)	45.6 µM (inactive)	> 61.5 µM (inactive)	> 100 µM (inactive)
CCOC(=O)c1c(NC(=S)NCc2ccccc2)sc2c1CCN(C)C2	68.1	–	64.9 µM (inactive)	64.4 µM (inactive)	> 100 µM (inactive)	28.5 µM (inactive)	39.5 µM (inactive)	–	42.7 µM (inactive)	40.8 µM (inactive)	65.5 µM (inactive)	–	89.5 µM (inactive)	53.6 µM (inactive)	69.2 µM (inactive)	78 µM (inactive)	–	57.3 µM (inactive)	> 100 µM (inactive)	–
Cn1ncc2c(=O)[nH]c(-c3ccccc3)nc21	> 100	> 100 µM (inactive)	> 100 µM (inactive)	> 100 µM (inactive)	> 100 µM (inactive)	> 100 µM (inactive)	> 100 µM (inactive)	–	> 100 µM (inactive)	–	> 100 µM (inactive)	> 100 µM (inactive)	> 100 µM (inactive)	> 100 µM (inactive)	> 100 µM (inactive)	> 100 µM (inactive)	> 100 µM (inactive)	> 100 µM (inactive)	> 100 µM (inactive)	> 100 µM (inactive)
CCCOC(=O)CNC(=O)OC(C)(C)C	> 100	> 100 µM (inactive)	> 100 µM (inactive)	> 100 µM (inactive)	> 100 µM (inactive)	–	> 100 µM (inactive)	> 100 µM (inactive)	–	> 100 µM (inactive)	> 100 µM (inactive)	> 100 µM (inactive)	> 100 µM (inactive)	> 100 µM (inactive)	> 100 µM (inactive)	> 100 µM (inactive)	> 100 µM (inactive)	> 100 µM (inactive)	> 100 µM (inactive)	> 100 µM (inactive)
CSCSCC(CO)NC(=O)/C=C\c1c(C)[nH]c(=O)[nH]c1=O (configuration not stated)	17.9	15.7 µM (inactive)	–	14.9 µM (inactive)	48.6 µM (inactive)	51.5 µM (inactive)	14.2 µM (inactive)	0.838 µM (active)	8.15 µM (inactive)	12.2 µM (inactive)	17.7 µM (inactive)	16.3 µM (inactive)	–	77.1 µM (inactive)	32.9 µM (inactive)	16.1 µM (inactive)	11.6 µM (inactive)	76.6 µM (inactive)	2.88 µM (inactive)	11.1 µM (inactive)
Oc1ccc(Cl)cc1C1=Nn2c(COc3ccc4c(c3)CCCC4)nnc2SC1	17.9	16.8 µM (inactive)	4.72 µM (inactive)	10.5 µM (inactive)	16.3 µM (inactive)	4.99 µM (inactive)	15.4 µM (inactive)	3.04 µM (inactive)	6.28 µM (inactive)	14 µM (inactive)	11.4 µM (inactive)	–	15.4 µM (inactive)	25.5 µM (inactive)	16.7 µM (inactive)	15.9 µM (inactive)	–	14 µM (inactive)	19.4 µM (inactive)	16.9 µM (inactive)
CC(C)C1=CC2=CC[C@@H]3[C@](C)(CCC[C@@]3(C)C(=O)O)[C@H]2CC1 [ABIETIC ACID]	43.4	45.8 µM (inactive)	> 66.4 µM (inactive)	43.7 µM (inactive)	56.1 µM (inactive)	> 46.6 µM (inactive)	> 50.9 µM (inactive)	37.2 µM (inactive)	62.4 µM (inactive)	47 µM (inactive)	45.3 µM (inactive)	55.8 µM (inactive)	53.8 µM (inactive)	50.6 µM (inactive)	> 70.8 µM (inactive)	42.6 µM (inactive)	> 67.9 µM (inactive)	37.8 µM (inactive)	36.2 µM (inactive)	> 81.7 µM (inactive)
CCOC1CC2OC(=O)C1C=C2C(=O)OC (configuration not stated)	27.7	21.9 µM (inactive)	37.8 µM (inactive)	35.7 µM (inactive)	27.7 µM (inactive)	14.7 µM (inactive)	31.4 µM (inactive)	32.7 µM (inactive)	–	79.3 µM (inactive)	17.9 µM (inactive)	–	27.8 µM (inactive)	> 100 µM (inactive)	24.8 µM (inactive)	> 100 µM (inactive)	23 µM (inactive)	> 100 µM (inactive)	22.3 µM (inactive)	> 100 µM (inactive)
CCOC(=O)C1C(c2cc(OC)c(O)c(OC)c2)c2cc3c(cc2OC1(C)O)OCO3 (configuration not stated)	46.6	42.9 µM (inactive)	> 100 µM (inactive)	41.8 µM (inactive)	61.9 µM (inactive)	71.1 µM (inactive)	> 100 µM (inactive)	11.5 µM (inactive)	88.5 µM (inactive)	48.2 µM (inactive)	66.5 µM (inactive)	16.5 µM (inactive)	55.2 µM (inactive)	45.6 µM (inactive)	> 100 µM (inactive)	> 100 µM (inactive)	42.6 µM (inactive)	35.2 µM (inactive)	26 µM (inactive)	> 100 µM (inactive)
O=C1OC(c2ccccc2)=N/C1=C\c1cccnc1	> 100	> 100 µM (inactive)	> 100 µM (inactive)	> 100 µM (inactive)	> 100 µM (inactive)	48.3 µM (inactive)	> 100 µM (inactive)	> 100 µM (inactive)	–	> 100 µM (inactive)	> 100 µM (inactive)	> 100 µM (inactive)	> 100 µM (inactive)	> 100 µM (inactive)	> 100 µM (inactive)	> 100 µM (inactive)	–	> 100 µM (inactive)	–	> 100 µM (inactive)
N/C(=N\O)N/N=C\c1ccccc1O	3.48	13.1 µM (inactive)	–	7.98 µM (inactive)	16.2 µM (inactive)	1.48 µM (inactive)	21 µM (inactive)	8.79 µM (inactive)	11.6 µM (inactive)	3.29 µM (inactive)	7.6 µM (inactive)	9.48 µM (inactive)	–	6.01 µM (inactive)	14.5 µM (inactive)	11.2 µM (inactive)	5.02 µM (inactive)	4 µM (inactive)	3.84 µM (inactive)	31.3 µM (inactive)
